One data set concerns the target Adrenergic alpha2C (Homo sapiens, UniProt P18825). Put plainly: Adrenergic alpha2C binding. An excerpt: (§1) Further, the compounds of the invention may be tested in binding assays and functional activity assays by well known methods for other physiologically important receptors such as, but not limited to, the hERG channel, other serotonin receptors (specifically 5-HT1B and 5-HT1D receptors, lack of agonist activity at 5-HT2B receptors, 5-HT2C, 5-HT5, 5-HT6, and 5-HT7 receptors), dopaminergic receptors (specifically D1, D2, and D3), GABAA receptors, adrenergic receptors and monoamine transporters.

A short description of another data set: Plasma clearance. Conditions: dog, 1 mg/kg, male Beagle dogs, intravenous, 1 mL/kg of 1.0 mg/mL (free base equivalents). The data set is classed as in vivo. The method, then:
Male Beagle dogs (body weight range 10-12 kg) are obtained from Marshall Bioresources, USA. Test compound is administered intravenously in solution (1 mL/kg) in 20% Captisol® in 22.5 mM phosphate buffer, pH 2, at a final drug concentration of 1.0 mg/mL (free base equivalents). Blood samples are obtained from the jugular vein over 24 hr. Samples of plasma are obtained by centrifugation and stored frozen (−20° C.) prior to analysis.
Frozen plasma samples are thawed to room temperature for bioanalysis of concentrations of test compound. A related internal standard compound in acetonitrile/methanol (1:1, v/v) is added to all samples of plasma (1:1, v/v). The samples are centrifuged to remove precipitated protein prior to analysis. The supernatants are analysed by injection and rapid gradient elution on a Javelin Betasil C18 column (20×2.1 mm cartridge, Mobile phase A: Water/1 M NH4HCO3, 2000:10 v/v, Mobile Phase B: MeOH/1 M NH4HCO3, 2000:10 v/v). The eluted analytes are detected by LC-MS-MS analysis using a Sciex API 4000 triple quadrupole mass spectrometer. Concentrations of compound are determined from standards prepared and analysed under identical conditions. Clearance is calculated using non-compartmental analysis in Watson 7.4, Thermo Fisher Scientific, Inc.

In the next data set the target is Adrenergic alpha2B (Homo sapiens, UniProt P18089). Put plainly: Adrenergic alpha2B binding.
Text: as §1

For data set [1], the target named is T1, recombinant H1 receptor (human) (Homo sapiens, UniProt P35367).
T1 construct: expressed in transfected cells; host or cells: HEK-293
Put plainly: H1 competition binding assay ([3H]-Pyrilamine, SPA). The method, then: [^3H]-Pyrilamine binding experiments are carried out in SPA (scintillation proximity assay) 96-well format. Membranes used in this assay are prepared from HEK-293 cells stably expressing recombinant H1 receptor (human). The incubation is initiated by the addition of a mixture of WGA PVT SPA beads (1 mg/well, Perkin Elmer (MA, USA) RPNQ0001) and 3 μg membranes to assay buffer (67 mM Tris; pH 7.6) containing 3.5 nM [^3H]-Pyrilamine and varying concentrations of the test compound (10 point concentration response curves). Non-specific binding is determined in the presence of 10 μM Triprolidine. Samples are incubated for 4 hr. at room temperature (22° C.) and then read in a Microbeta® Trilux.
Binding data analysis Curves are evaluated using a 4-parameter logistic nonlinear equation to obtain the concentration of competitor causing 50% inhibition of radioligand binding (IC50). Equilibrium dissociation constants (Ki) are calculated according to the equation Ki=IC50/(1+L/Kd), where L equals the concentration of radioligand used in the experiment and Kd equals the equilibrium dissociation constant of the radioligand for the receptor, determined from standard saturation analysis or homologous competition experiments. Reported values for Ki, where n values are indicated, are shown as geometric mean±the standard error of the mean (SEM), with the number of replicate determinations indicated by n. […]

For the next data set, the target named is Dopamine D2 (Homo sapiens, UniProt P14416). Put plainly: Dopamine D2 binding.
Text: as §1

For another data set, the target named is 5-HT2B (Homo sapiens, UniProt P41595). Put plainly: 5-HT2B binding.
Text: as §1

Another data set concerns the target Dopamine D1 (Homo sapiens, UniProt P21728). Put plainly: Dopamine D1 binding.
Text: as §1

In another data set the target is Dopamine Transporter (Homo sapiens, UniProt Q01959). Put plainly: Dopamine transporter binding.
Text: as §1

Another data set deals with T2, 5-HT2A receptor (Mus musculus, UniProt P35363).
T2 construct: The in vivo 5-HT2A receptor antagonist activity; from tissue; host or cells: living C57BL/6J mice
The experiment in a line: Inhibition of DOI induced headshake activity. It counts as in vivo. Conditions: male C57BL/6J mice, 10 mg/kg PO, 3 mg/kg DOI, 60 min. pre-treatment. The method, then:
(see for example Bartoszyk G D, van Amsterdam C, Böttcher H, Seyfried C A. EMD 281014, a new selective serotonin 5-HT2A receptor antagonist. Eur J Pharmacol. 2003 473: 229-230.) Briefly, male C57BL/6J mice (20-25 g, Charles River) are housed in standard housing conditions ([…], 07.00 to 19.00 light phase, constant temperature (19-23° C.) and humidity (50%+/−10), ad lib food and water). Mice received either vehicle (0.25% Methyl cellulose), DOI (3 mg/kg in saline) or test compound at 10 mg/kg PO plus DOI (3 mg/kg in saline). Test compounds are individually evaluated in groups of four per experiment with n=4 for each compound, together with vehicle and DOI+vehicle (n=8). After a test compound pre-treatment time of 60 min. the mice receive either vehicle (saline) or 3 mg/kg DOI dosed subcutaneously, and are then placed into clear perspex observation chambers. […] The data is analyzed using an ANOVA and post-hoc Dunnet's Test. The compound of example 2 is tested essentially as described and is found to inhibit the DOI induced headshake response produced by 3 mg/kg DOI by 100% at 10 mg/kg.

For a further data set, the target named is Adrenergic alpha2A (Homo sapiens, UniProt P08913). The experiment in a line: Adrenergic alpha2A binding.
Text: as §1

A further data set has as its target 5-HT6 (Homo sapiens, UniProt P50406). The experiment in a line: 5-HT6 binding.
Text: as §1

Where a name gives a salt, the structure may show the parent alone.

What is called Ki is the dissociation constant of the complex between target and ligand, obtained from inhibition or displacement. As a reminder, the clearance is a measure of how efficiently the substance is removed, as volume per time.

Chain of Adrenergic alpha2A (P08913 whole entry): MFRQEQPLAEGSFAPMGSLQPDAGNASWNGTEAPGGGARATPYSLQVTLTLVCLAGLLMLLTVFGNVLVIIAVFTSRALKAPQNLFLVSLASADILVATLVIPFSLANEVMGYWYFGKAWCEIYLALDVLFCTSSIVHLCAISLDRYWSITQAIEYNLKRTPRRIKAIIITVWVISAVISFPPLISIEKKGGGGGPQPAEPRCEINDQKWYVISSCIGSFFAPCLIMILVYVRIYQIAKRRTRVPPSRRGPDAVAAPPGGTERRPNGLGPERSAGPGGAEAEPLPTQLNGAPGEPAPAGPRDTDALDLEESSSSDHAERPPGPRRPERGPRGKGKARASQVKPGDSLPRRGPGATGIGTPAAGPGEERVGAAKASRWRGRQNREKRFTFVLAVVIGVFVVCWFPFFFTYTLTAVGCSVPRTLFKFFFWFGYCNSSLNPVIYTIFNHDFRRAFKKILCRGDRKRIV
Chain of Dopamine D1 (P21728 whole entry): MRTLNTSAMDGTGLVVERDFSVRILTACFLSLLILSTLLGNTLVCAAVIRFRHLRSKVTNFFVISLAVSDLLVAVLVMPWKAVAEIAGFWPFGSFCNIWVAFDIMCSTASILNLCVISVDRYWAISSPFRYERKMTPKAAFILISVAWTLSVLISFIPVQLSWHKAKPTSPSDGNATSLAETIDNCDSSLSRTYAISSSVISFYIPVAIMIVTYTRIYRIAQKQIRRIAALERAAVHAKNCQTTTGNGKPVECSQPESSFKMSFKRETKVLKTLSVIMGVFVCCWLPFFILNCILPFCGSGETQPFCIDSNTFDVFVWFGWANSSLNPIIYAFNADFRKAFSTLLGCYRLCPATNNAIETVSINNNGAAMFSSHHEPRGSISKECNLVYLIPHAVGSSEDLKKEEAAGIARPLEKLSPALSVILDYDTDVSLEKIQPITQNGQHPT
Chain of 5-HT6 (P50406 whole entry, species assumed): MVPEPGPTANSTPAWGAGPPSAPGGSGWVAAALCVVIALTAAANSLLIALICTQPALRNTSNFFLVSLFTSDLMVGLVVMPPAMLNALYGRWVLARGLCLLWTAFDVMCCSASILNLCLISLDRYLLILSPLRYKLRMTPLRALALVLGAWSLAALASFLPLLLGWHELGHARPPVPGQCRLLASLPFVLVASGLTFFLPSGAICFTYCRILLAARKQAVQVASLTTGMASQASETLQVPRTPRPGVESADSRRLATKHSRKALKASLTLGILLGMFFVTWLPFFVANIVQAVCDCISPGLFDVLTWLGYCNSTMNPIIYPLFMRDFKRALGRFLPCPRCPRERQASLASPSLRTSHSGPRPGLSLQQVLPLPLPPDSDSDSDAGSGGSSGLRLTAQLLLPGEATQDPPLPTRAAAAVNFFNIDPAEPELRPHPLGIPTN
Chain of 5-HT2B (P41595 whole entry, species assumed): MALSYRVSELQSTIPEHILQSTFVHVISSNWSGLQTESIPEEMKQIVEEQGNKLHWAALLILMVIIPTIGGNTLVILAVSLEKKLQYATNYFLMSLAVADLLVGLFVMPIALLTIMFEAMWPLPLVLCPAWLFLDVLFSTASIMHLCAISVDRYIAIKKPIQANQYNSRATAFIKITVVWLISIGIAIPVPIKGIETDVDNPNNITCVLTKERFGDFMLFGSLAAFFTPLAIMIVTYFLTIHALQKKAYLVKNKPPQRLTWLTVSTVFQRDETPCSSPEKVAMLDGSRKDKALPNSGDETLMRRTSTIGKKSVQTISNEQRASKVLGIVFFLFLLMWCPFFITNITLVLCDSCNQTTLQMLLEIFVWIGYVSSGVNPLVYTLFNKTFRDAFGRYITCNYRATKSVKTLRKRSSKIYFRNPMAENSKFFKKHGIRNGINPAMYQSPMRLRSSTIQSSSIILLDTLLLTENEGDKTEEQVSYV
Chain of Dopamine Transporter (Q01959 whole entry): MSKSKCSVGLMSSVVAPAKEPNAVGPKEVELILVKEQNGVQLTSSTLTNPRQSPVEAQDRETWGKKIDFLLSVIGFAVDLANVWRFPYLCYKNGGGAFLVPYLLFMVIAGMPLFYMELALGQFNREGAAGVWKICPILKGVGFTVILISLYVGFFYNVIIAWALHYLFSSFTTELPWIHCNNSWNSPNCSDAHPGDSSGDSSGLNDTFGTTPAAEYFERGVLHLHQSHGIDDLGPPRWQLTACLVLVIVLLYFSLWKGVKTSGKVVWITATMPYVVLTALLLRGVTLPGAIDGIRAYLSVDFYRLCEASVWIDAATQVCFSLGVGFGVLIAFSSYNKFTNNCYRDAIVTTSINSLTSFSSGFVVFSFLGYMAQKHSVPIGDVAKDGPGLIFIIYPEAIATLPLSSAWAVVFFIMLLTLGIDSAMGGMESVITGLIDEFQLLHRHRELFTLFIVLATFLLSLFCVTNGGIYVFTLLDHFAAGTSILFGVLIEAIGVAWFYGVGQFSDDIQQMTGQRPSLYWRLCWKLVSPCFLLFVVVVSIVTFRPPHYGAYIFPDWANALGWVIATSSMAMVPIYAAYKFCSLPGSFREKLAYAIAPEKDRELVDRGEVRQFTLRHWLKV
Chain of Dopamine D2 (P14416 whole entry): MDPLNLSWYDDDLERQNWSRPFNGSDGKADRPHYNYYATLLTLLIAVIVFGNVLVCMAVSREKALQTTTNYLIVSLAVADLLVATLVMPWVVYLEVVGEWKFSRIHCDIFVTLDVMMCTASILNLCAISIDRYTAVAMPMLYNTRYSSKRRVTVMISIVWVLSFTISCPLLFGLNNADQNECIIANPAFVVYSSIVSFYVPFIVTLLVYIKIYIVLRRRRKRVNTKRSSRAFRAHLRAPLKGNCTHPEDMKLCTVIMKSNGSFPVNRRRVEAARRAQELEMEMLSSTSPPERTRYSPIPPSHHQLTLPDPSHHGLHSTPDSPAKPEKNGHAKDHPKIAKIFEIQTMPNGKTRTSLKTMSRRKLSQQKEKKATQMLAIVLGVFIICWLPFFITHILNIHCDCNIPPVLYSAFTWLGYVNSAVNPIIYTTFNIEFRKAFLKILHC
Chain of Adrenergic alpha2B (P18089 whole entry): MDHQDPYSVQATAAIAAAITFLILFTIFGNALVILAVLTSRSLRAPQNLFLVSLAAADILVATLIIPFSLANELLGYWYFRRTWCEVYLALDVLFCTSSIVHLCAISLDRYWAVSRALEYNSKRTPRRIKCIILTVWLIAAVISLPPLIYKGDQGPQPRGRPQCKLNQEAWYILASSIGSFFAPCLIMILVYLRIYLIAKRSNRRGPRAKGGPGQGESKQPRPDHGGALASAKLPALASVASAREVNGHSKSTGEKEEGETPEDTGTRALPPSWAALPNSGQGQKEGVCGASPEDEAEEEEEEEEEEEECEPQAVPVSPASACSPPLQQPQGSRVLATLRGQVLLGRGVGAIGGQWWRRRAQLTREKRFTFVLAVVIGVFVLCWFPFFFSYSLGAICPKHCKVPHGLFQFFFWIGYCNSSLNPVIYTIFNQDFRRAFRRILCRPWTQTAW
Chain of Adrenergic alpha2C (P18825 whole entry): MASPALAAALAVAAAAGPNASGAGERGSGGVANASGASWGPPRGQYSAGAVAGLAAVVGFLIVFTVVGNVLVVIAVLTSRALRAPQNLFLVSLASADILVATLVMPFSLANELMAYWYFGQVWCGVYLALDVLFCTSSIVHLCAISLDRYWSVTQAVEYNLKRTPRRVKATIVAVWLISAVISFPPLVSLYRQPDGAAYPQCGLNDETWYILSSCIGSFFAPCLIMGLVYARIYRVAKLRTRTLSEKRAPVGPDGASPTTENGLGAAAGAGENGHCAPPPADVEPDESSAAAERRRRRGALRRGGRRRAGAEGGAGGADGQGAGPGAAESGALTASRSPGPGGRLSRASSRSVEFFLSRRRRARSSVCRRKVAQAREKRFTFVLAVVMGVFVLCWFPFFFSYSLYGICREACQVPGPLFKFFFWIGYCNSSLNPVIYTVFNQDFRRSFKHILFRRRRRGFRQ
T2 sequence (P35363 whole entry): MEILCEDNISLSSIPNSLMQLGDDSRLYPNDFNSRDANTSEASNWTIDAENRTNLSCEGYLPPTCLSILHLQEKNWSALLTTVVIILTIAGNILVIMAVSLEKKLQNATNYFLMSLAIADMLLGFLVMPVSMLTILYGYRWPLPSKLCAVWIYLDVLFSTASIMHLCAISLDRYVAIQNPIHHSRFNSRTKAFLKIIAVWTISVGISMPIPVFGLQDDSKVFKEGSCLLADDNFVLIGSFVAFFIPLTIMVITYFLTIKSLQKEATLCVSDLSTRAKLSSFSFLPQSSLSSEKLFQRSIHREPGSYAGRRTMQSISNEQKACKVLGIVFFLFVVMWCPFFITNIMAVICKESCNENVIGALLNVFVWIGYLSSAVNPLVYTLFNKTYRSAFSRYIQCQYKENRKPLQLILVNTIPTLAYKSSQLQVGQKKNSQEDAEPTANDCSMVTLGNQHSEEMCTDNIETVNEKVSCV
T1 sequence (P35367 whole entry): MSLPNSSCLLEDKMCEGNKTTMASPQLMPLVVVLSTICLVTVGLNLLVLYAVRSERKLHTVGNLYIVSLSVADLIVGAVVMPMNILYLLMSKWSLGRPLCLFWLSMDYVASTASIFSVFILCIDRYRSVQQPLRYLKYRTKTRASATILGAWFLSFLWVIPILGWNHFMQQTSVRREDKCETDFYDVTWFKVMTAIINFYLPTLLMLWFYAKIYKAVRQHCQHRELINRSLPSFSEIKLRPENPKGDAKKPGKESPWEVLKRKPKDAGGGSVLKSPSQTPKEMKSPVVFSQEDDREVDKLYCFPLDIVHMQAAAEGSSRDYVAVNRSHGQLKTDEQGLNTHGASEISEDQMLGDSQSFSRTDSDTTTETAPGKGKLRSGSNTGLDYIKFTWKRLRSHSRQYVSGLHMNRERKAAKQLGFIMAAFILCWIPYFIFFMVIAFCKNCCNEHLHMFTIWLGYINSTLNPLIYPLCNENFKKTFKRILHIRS

For the molecule `Cc1ccc2c(c1)Oc1sc(C3CC3)cc1C(N1CCN(CC(C)(C)C(=O)O)CC1)=N2` [Example 2, 3-[4-(2-Cyclopropyl-8-methyl-thieno[2,3-b][1,5]benzoxazepin-4-yl)piperazin-1-yl]-2,2-dimethyl-propanoic acid dihydrochloride], the Ki came out at 1380 nM on Adrenergic alpha2C; 1060 nM at Adrenergic alpha2B; 43.2 nM in [1]; 2320 nM on Dopamine D2; 118 nM at 5-HT2B; 996 nM on Dopamine D1. Moreover, the Ki at Dopamine Transporter is over 867 nM; on Adrenergic alpha2A it was 5920 nM; on 5-HT6, over 5830 nM. Besides, the clearance in the data set “Plasma clearance” was 6.06 mL/min/kg. Besides, the “inhibition of DOI induced headshake response” value on 5-HT2A receptor is recorded as 100%.

Source of the values: patent US9562057B2, “(Thieno[2,3-b][1,5]benzoxazepin-4-yl)piperazin-1-yl compounds as dual activity H1 inverse agonists/5-HT2A antagonists” (Eli Lilly and Company, priority 2013, dated 2017).
